Experimental data taken from the supplement of paper PMC10307832.

Tests used:
Experiment in all cases: relative viability (nuclei count vs DMSO), 5 days (fraction); higher = more cells survive
MLN4924 + Trametinib = compound: NS(=O)(=O)OC[C@@H]1C[C@@H](n2ccc3c(N[C@H]4CCc5ccccc54)ncnc32)C[C@@H]1O [MLN4924] + CC(=O)Nc1cccc(-n2c(=O)n(C3CC3)c(=O)c3c(Nc4ccc(I)cc4F)n(C)c(=O)c(C)c32)c1 [Trametinib] (partner 0.02 µM)
In short: (§1)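 Relative viability was taken as the ratio of nuclei in treated wells to nuclei in vehicle wells. Lung cancer cell lines in 1536-well plates received compounds by pin tool one day after seeding, either one drug alone or a fixed anchor-drug dose plus five library-drug doses (not always all listed) in √10 steps. Nuclei were counted on 4× images after 5 days of treatment, and values are medians of duplicate plates.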

Carboplatin + Olaparib = compound: C1CC(C1)(C(=O)O)C(=O)O.[NH2-].[NH2-].[Pt+2] [Carboplatin] + O=C(c1cc(Cc2n[nH]c(=O)c3ccccc23)ccc1F)N1CCN(C(=O)C2CC2)CC1 [Olaparib] (partner 8 µM)
In short: as §1

GSK126 + Pictilisib = compound: CC[C@H](C)N1C=C(C2=C(C=C(C=C21)C3=CN=C(C=C3)N4CCNCC4)C(=O)NCC5=C(C=C(NC5=O)C)C)C [GSK126] + CS(=O)(=O)N1CCN(Cc2cc3nc(-c4cccc5[nH]ncc45)nc(N4CCOCC4)c3s2)CC1 [Pictilisib] (partner 1 µM)
In short: as §1

GSK126 + Pemetrexed = compound: CC[C@H](C)N1C=C(C2=C(C=C(C=C21)C3=CN=C(C=C3)N4CCNCC4)C(=O)NCC5=C(C=C(NC5=O)C)C)C [GSK126] + Nc1nc2[nH]cc(CCc3ccc(C(=O)N[C@@H](CCC(=O)O)C(=O)O)cc3)c2c(=O)[nH]1 [Pemetrexed] (partner 0.2 µM)
In short: as §1

Cell Line | relative viability (MLN4924 + Trametinib; first compound 0.04 µM) | relative viability (MLN4924 + Trametinib; first compound 0.1265 µM) | relative viability (MLN4924 + Trametinib; first compound 0.4 µM) | relative viability (MLN4924 + Trametinib; first compound 1.265 µM) | relative viability (MLN4924 + Trametinib; first compound 4 µM) | relative viability (Carboplatin + Olaparib; first compound 0.08 µM) | relative viability (Carboplatin + Olaparib; first compound 0.253 µM) | relative viability (Carboplatin + Olaparib; first compound 0.8 µM) | relative viability (Carboplatin + Olaparib; first compound 2.53 µM) | relative viability (Carboplatin + Olaparib; first compound 8 µM) | relative viability (GSK126 + Pictilisib; first compound 0.08 µM) | relative viability (GSK126 + Pictilisib; first compound 0.253 µM) | relative viability (GSK126 + Pictilisib; first compound 0.8 µM) | relative viability (GSK126 + Pictilisib; first compound 2.53 µM) | relative viability (GSK126 + Pictilisib; first compound 8 µM) | relative viability (GSK126 + Pemetrexed; first compound 0.08 µM) | relative viability (GSK126 + Pemetrexed; first compound 0.253 µM) | relative viability (GSK126 + Pemetrexed; first compound 0.8 µM) | relative viability (GSK126 + Pemetrexed; first compound 2.53 µM) | relative viability (GSK126 + Pemetrexed; first compound 8 µM)
BEN | 1 | 0.733 | 0.548 | 0.372 | 0.287 | 1.21 | 1.12 | 1.11 | 0.837 | 0.596 | 0.706 | 0.569 | 0.582 | 0.541 | 0.438 | 0.881 | 0.715 | 0.832 | 0.896 | 0.785
EPLC-272H | 0.339 | 0.333 | 0.0863 | 0.147 | 0.126 | 0.857 | 0.777 | 0.798 | 0.73 | 0.527 | 0.35 | 0.337 | 0.26 | 0.329 | 0.3 | 0.327 | 0.327 | 0.26 | 0.366 | 0.322
NCI-H2228 | 0.537 | 0.496 | 0.255 | 0.168 | 0.125 | 0.927 | 0.514 | 0.553 | 0.645 | 0.436 | 0.357 | 0.519 | 0.494 | 0.497 | 0.42 | 0.374 | 0.312 | 0.354 | 0.312 | 0.392
NCI-H661 | 0.714 | 0.712 | 0.475 | 0.277 | 0.353 | 0.73 | 0.794 | 0.675 | 0.737 | 0.729 | 0.43 | 0.433 | 0.401 | 0.565 | 0.345 | 0.982 | 0.897 | 0.991 | 0.914 | 0.967
LU99A | 0.493 | 0.342 | 0.291 | 0.172 | 0.146 | 0.296 | 0.272 | 0.253 | 0.236 | 0.214 | 0.33 | 0.32 | 0.284 | 0.342 | 0.362 | 0.181 | 0.165 | 0.185 | 0.179 | 0.155
NCI-H2405 | 0.882 | 0.893 | 0.621 | 0.292 | 0.254 | 0.965 | 0.926 | 0.841 | 0.821 | 0.66 | 0.427 | 0.385 | 0.437 | 0.452 | 0.397 | 1.01 | 0.993 | 0.994 | 1.09 | 0.94
NCI-H2009 | 0.342 | 0.322 | 0.238 | 0.136 | 0.105 | 0.65 | 0.653 | 0.658 | 0.594 | 0.437 | 1.14 | 0.69 | 0.827 | 0.908 | 0.908 | 1.11 | 1.03 | 1 | 0.982 | 1.06
HOP-62 | 0.432 | 0.567 | 0.369 | 0.103 | 0.0823 | 0.391 | 0.398 | 0.444 | 0.506 | 0.255 | 0.894 | 0.758 | 0.64 | 0.86 | 0.785 | 0.335 | 0.355 | 0.284 | 0.289 | 0.419
